Assay results as given in US12012628B2, “Method to elevate the amount of steviol glycosides remained in the recrystallization mother liquor of Stevia extract” (Jiangnan University, priority 2018, dated 2024).
Like-named read-outs stand apart in the source and are kept apart here. Each block holds one molecule with its values, some of them ahead of it.

Columns and labels:
[1] = system: lactase from Kluyveromyces fragilis (ATCC 8554); assay: Lactase-catalysed hydrolysis of steviol glycosides, HPLC analysis of the reaction mixture; assay type: biochemical
Experimental: A standard curve is drawn with rebaudioside A (HPLC 99%) as a standard sample, concentrations of rebaudioside A, stevioside and rubusoside are figured out through the standard curve of rebaudioside A by means of an analysis and detection method of steviol glycosides in JECFA2016.
A conversion rate calculation formula of stevioside: α=[(C0−Ct)/C0]×100% (1)
(§1) 250 g/L glycoside liquid is prepared with deionized water from Stevia sugar (containing 22% of rebaudioside A, 68% of stevioside and 3% of rebaudioside C in percentages by mass). The lactase freeze-dried powder obtained in Example 1 is added to reach an enzyme concentration of 60 U/g stevioside for reaction at 35° C. for 2 h.
as §1, with “of 150” for “of 60”, “for 24” for “for 2”
100 g/L glycoside liquid is prepared from the Stevia mother liquor glycosides (containing 47% of rebaudioside A, 19% of stevioside and 7% of rebaudioside C in percentages by mass). The lactase freeze-dried powder obtained in Example 1 is added to reach an enzyme concentration of 30 U/g stevioside for reaction at 25° C. for 0.5 h. […] It can be seen that a conversion rate of stevioside will drop at a low temperature, a low enzyme concentration and a short reaction time.
A 200 g/L stevioside solution is prepared by dissolving 20 g of stevioside (97%, HPLC) in 100 mL of deionized water into a reactor. The lactase freeze-dried powder obtained in Example 1 is added to reach an enzyme concentration of 90 U/g stevioside for reaction at 35° C. for 2 h.
The lactase freeze-dried powder obtained in Example 1 is added to a mixed glycoside solution (50% of stevioside and 50% of rebaudioside A) with a solid content of 200 g/L to reach an enzyme concentration of 200 U/g stevioside, stirred at 35° C. for 2 h.
A 10 g/L rebaudioside A solution is prepared by dissolving 1 g of rebaudioside A (99%, HPLC) in 100 mL of deionized water and preheated for 30 min at 30° C. The lactase freeze-dried powder obtained in Example 1 is added to reach an enzyme concentration of 100 U/g rebaudioside A for reaction for 24 h at 30° C.

[2] = n-butyl alcohol/water partition coefficients of steviol glycosides; assay type: physicochemical
Text: The n-butyl alcohol/water partition coefficients of several major steviol glycosides in the mother liquor glycosides are shown in Table 1. It can be seen in Table 1 that the polarity difference between rebaudioside A and rebaudioside C and rubusoside is far larger than the polarity difference between rebaudioside A and rebaudioside C and stevioside; and thus, after stevioside is converted into rubusoside, rebaudioside A and rebaudioside C can be separated out of a mixture more easily than before.

[3] = target: T1, lactase (Lactozym Pure 7500 L) (Kluyveromyces lactis, UniProt P00723); assay: Hydrolysis of stevioside in Stevia sugar by commercial lactase, HPLC; assay type: biochemical; conditions: Stevia sugar 450 g/L, pH5 buffer; 100 U/g stevioside; 30° C., 2 h
T1 construct: purchased Novozymes Lactozym Pure 7500 L
Experimental: (§2) 450 g/L glycoside liquid is prepared with a pH5 phosphate-potassium phosphate buffer solution (50 mmol/L) from Stevia sugar (containing 22% of rebaudioside A, 68% of stevioside and 3% of rebaudioside C in percentages by mass). The lactase (Lactozym Pure 7500 L, purchased from Novozymes company in China) is added to reach an enzyme concentration of 100 U/g stevioside for reaction at 30° C. for 2 h.

[4] = target: T2, lactase (Maxilact LG 2000) from Kluyveromyces lactis (Kluyveromyces lactis, UniProt P00723); assay: as above; assay type: biochemical; conditions: Stevia sugar 450 g/L, pH5 buffer, 100 U/g stevioside, 30° C.
T2 construct: purchased Royal DSM Maxilact LG 2000
Experimental: 450 g/L glycoside liquid is prepared with a pH5 phosphate-potassium phosphate buffer solution (50 mmol/L) from Stevia sugar (containing 22% of rebaudioside A, 68% of stevioside and 3% of rebaudioside C in percentages by mass). […]

[5] = target: T3, lactase (Lactozym 3000 L HP-G) from Kluyveromyces lactis (Kluyveromyces lactis, UniProt P00723); assay: as above; assay type: biochemical; conditions: Stevia sugar 450 g/L, pH5 buffer; 100 U/g stevioside; 30° C., 2 h
T3 construct: purchased Novozymes Lactozym 3000 L HP-G
Experimental: as §2, with “(trade name: Lactozym 3000 L HP-G,” for “(Lactozym Pure 7500 L,”, “China) from Kluyveromyces lactis” for “China)”

[6] = target: lactase from Aspergillus niger (ATCC 9029) (Aspergillus niger, UniProt P29853); assay: Hydrolysis of stevioside in Stevia sugar by lactase, HPLC; assay type: biochemical; conditions: Stevia sugar 450 g/L, pH5 buffer; 100 U/g stevioside; 30° C., 2 h
Experimental: as §2, with “lactase” for “lactase (Lactozym Pure 7500 L, purchased”, “Aspergillus niger (ATCC® 9029™)” for “Novozymes company in China)”

T2 sequence (P00723 whole entry): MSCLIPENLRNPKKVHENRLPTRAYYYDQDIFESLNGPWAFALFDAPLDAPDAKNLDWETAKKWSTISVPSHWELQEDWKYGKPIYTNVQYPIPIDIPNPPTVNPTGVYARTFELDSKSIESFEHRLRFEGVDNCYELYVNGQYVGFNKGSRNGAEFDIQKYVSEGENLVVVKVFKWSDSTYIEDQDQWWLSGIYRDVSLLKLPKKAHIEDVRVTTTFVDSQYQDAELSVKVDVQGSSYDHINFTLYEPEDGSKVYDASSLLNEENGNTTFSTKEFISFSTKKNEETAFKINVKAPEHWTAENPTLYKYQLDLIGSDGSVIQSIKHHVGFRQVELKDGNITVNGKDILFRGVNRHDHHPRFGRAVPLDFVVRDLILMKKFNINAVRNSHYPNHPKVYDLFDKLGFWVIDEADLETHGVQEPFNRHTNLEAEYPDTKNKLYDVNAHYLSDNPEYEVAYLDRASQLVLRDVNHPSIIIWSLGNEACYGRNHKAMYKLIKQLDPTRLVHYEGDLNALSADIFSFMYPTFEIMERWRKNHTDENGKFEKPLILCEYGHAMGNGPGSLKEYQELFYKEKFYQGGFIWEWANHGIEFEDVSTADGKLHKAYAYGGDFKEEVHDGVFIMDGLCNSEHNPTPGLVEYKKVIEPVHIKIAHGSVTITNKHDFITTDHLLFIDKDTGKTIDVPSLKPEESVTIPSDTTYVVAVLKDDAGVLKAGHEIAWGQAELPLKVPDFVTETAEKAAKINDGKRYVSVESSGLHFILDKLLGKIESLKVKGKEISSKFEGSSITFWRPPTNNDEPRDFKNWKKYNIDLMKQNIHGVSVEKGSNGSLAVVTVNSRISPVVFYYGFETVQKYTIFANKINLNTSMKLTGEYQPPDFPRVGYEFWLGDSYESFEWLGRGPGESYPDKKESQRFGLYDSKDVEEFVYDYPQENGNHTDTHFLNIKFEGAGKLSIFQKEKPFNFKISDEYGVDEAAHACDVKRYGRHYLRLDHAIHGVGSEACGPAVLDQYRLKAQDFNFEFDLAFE
T1 sequence (P00723 whole entry): as above
T3 sequence (P00723 whole entry): as above
Sequence of lactase from Aspergillus niger (ATCC 9029) (P29853 20-1006): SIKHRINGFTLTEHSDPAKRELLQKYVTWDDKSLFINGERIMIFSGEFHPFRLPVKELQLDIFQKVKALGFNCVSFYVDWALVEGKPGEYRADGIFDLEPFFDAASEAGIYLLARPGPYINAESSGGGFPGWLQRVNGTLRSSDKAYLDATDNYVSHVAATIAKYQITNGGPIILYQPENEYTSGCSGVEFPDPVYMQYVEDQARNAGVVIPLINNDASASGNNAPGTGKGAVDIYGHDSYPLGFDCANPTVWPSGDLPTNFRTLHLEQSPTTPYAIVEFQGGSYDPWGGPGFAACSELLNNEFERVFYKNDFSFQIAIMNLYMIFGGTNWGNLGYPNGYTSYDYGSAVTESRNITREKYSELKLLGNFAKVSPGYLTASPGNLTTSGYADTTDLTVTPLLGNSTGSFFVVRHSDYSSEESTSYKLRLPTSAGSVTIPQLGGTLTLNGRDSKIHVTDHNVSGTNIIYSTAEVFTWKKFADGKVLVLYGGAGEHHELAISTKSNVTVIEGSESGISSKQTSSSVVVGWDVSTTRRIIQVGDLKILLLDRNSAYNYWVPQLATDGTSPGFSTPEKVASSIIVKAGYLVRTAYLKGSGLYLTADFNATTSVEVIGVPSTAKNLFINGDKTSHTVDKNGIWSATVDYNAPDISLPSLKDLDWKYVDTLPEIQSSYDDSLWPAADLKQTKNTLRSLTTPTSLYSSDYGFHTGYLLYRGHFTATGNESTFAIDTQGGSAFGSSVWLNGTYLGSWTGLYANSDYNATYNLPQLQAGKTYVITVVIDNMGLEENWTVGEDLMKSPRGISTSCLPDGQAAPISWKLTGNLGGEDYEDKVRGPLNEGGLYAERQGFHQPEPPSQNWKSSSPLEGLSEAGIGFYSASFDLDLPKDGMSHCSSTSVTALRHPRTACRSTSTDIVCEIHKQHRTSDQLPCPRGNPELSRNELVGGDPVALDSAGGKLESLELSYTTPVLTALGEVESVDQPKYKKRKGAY

reaction of rebaudioside A with lactase ([1]; 10 g/L rebaudioside A, 100 U/g rebaudioside A, 30° C., 24 h): did not react | reaction of rebaudioside A with lactase in mixture with stevioside ([1]; 50 wt % rebaudioside A + 50 wt % stevioside, 200 U/g stevioside, 2 h (FIG. 4A)): does not react | n-butyl alcohol/water partition coefficients [2]: 0.09
Molecule: C=C1C[C@@]23CC[C@H]4[C@@](C)(CCC[C@@]4(C)C(=O)O[C@@H]4O[C@H](CO)[C@@H](O)[C@H](O)[C@H]4O)[C@@H]2CC[C@]1(O[C@@H]1O[C@H](CO)[C@@H](O)[C@H](O[C@@H]2O[C@H](CO)[C@@H](O)[C@H](O)[C@H]2O)[C@H]1O[C@@H]1O[C@H](CO)[C@@H](O)[C@H](O)[C@H]1O)C3 [rebaudioside A]

n-butyl alcohol/water partition coefficients [2]: 3.5
Molecule: C=C1C[C@@]23CC[C@H]4[C@@](C)(CCC[C@@]4(C)C(=O)O[C@@H]4O[C@H](CO)[C@@H](O)[C@H](O)[C@H]4O)[C@@H]2CC[C@]1(O[C@@H]1O[C@H](CO)[C@@H](O)[C@H](O)[C@H]1O)C3 [rubusoside]

Molecule: C=C1C[C@@]23CC[C@H]4[C@@](C)(CCC[C@@]4(C)C(=O)O[C@@H]4O[C@H](CO)[C@@H](O)[C@H](O)[C@H]4O)[C@@H]2CC[C@]1(O[C@@H]1O[C@H](CO)[C@@H](O)[C@H](O)[C@H]1O[C@@H]1O[C@H](CO)[C@@H](O)[C@H](O)[C@H]1O)C3 [stevioside]
conversion of stevioside [3]: not converted | conversion rate of stevioside ([1]; 50% stevioside + 50% rebaudioside A, 200 g/L, 200 U/g stevioside, 35° C., 2 h): 99.5% | conversion rate of stevioside ([1]; 200 g/L stevioside (97%) solution, 90 U/g stevioside, 35° C., 2 h): 98.9% | conversion rate of stevioside ([1]; Stevia mother liquor glycosides 100 g/L (19% stevioside), 30 U/g stevioside, 25° C., 0.5 h): 72.7% | conversion rate of stevioside ([1]; Stevia sugar 250 g/L (68% stevioside), 60 U/g stevioside, 35° C., 2 h): 98.3% | conversion rate of stevioside ([1]; Stevia sugar 250 g/L (68% stevioside), 150 U/g stevioside, 35° C., 24 h): 99.5% | n-butyl alcohol/water partition coefficients ([2]; n-butyl alcohol/water): 0.36 | conversion of stevioside ([4]; 2 h): not converted | product of the reaction of stevioside ([4]; 20 h): steviolbioside is produced | conversion of stevioside [5]: not converted | content of stevioside in the reaction mixture [6]: no change

n-butyl alcohol/water partition coefficients [2]: 0.2
Molecule: rebaudioside C
